Tests used:
HLA-DR4Dw4 = molecular target: T1, HLA-DR4Dw4 (Homo sapiens, UniProt P01903+P01911, A100K/A169T/F76Y/I96L/K127E/L162R/M171V/N62H/P40V/Q125Y/R42H/S133A/S149N/S66Y/V115G/V209L/W38E); experiment: Test A: purified HLA-DR peptide in vitro binding assay (or its variant)
T1 construct: made in house; host or cells: double-recombinant baculovirus in Sf21 insect cells (Test A), or the human JAH cell line (variant to Test A)
Method: Purified HLA-DR peptide in vitro binding assay. […]. At the end of the incubation period 100 μl of the incubate is transferred to Enzyme Linked ImmunoSorbant Assay (ELISA) plates (Nunc) previously coated with an anti-MHC antibody (L243-American Type Culture Collection (ATCC) HB55 as described in Lampson and Levy (1980) J. Immunol. 125, 293-299) at a concentration of 10 μg/ml for 1 hour at room temperature and blocked thereafter for 1 hour with 1% bovine serum albumin (BSA) in PBS and 0.05% Tween 20. […] The reaction is stopped by adding 2M sulphuric acid (10 μl per well) and the absorbance read at 450 nm to quantify the amount of peptide bound. The inhibitory activity of peptides is obtained by plotting absorbance against concentration. […]
To create the double-recombinant baculovirus, a cDNA encoding the β chain is cloned into the transfer vector pAcUW1 [Weyer, U; Knight, S & Possee, R D (1990) J. Gen. […] Double-recombinant viruses are detected by spotting insecT-cells, infected with randomly picked viruses from the transfection,onto membranes and reacting them with a monoclonal antibody e.g. L243 which specifically recognises the HLA-DR heterodimer. Binding of the antibody to Sf21 insecT-cells is detected using standard flow cytometry techniques, readily available in the literature. […]

HLA-DR1 = experiment: Variant to Test A: peptide selectivity binding assay, HLA-DR1; parameters: species or system human
Method: (§1) As a varient to test A, the ability of a peptide of the invention to bind to one or more HLA-DR molecules was assessed as follows:
(§2) The method used was a modification of that described by Gorga et al, 1987, J.Biol.Chem. 262, 16087-16094. Human HLA-DR antigens were purified from various cell lines by immunoaffinity chromatography. […] Protein content was determined by a Biorad protein assay and purity by SDS-PAGE electrophoresis.
(§3) 200 nM biotin-FHA307-320 in phosphate buffered saline (PBS) was incubated with either purified HLA-DR1, DR2, DR4Dw4, DR4Dw13 or DR4Dw14 (2-20 μg/ml) in V-well microtitre plates (Nunc) with or without inhibitor peptides in assay buffer (PBS, 0.01% NP40 (Sigma.)) For DR3 inhibition, 400 nM Biotin-Ahx-(D)Ala-Ala-Ala-Che-Ile-Ala-Ala-Ala-Thr-Leu-Lys-Ala-Ala-(D)Ala-OH (SEQ ID NO:25) was incubated with purified DR3 (20 μg/ml), and incubated as above. After 48 hours, the incubates were treated, and absorbance readings taken as described in Test A. The inhibitory activity of peptides, expressed as IC50 values, was calculating using Microcal Origin software on a PC.

HLA-DR2 = experiment: Variant to Test A: peptide selectivity binding assay, HLA-DR2; parameters: species or system human
Method: as §1, §2, §3

HLA-DR3 = experiment: Variant to Test A: peptide selectivity binding assay, HLA-DR3; parameters: species or system human; settings: no significant binding
Method: as §1, §2, §3

BALB/C mice = experiment: Test C: peptide stimulated DTH (delayed type hypersensitivity) in BALB/C mice; format: in vivo; settings: osmotic mini-pump
Method: Peptide stimulated DTH (delayed type hypersensitivity) in BALB/C mice. […] Balb/c female mice (18-20 g), 5 per group, were immunised sub-cutaneously on the flank with 0.1 ml of an emulsion of ovalbumin (Sigma) (2 mg/ml in saline) mixed 1:1 (v/v) with complete Freunds adjurant (Sigma). Seven days later footpad thickness was detemined using a dual caliper micrometer followed by a challenge in one hind footpad with a 30 μl sub-plantar injection of 1% heat-aggregated ovalbumin protein in saline. Twenty-four hours after antigen challenge, footpads were measured and the DTH response calculated as the percentage increase in footpad thickness in the injected footpad compared to contralateral control. Inhibitors were adminstered by 3-day osmotic mini-pumps (Alzet) implanted 24 hours prior to antigen challenge at doses ranging from 10 mg/kg/day to 0.1 μg/kg/day. The degree of inhibition was calculated by substracting the value for swelling of inhibitor treated footpads from that of the vehicle dosed controls, dividing by the control value and multiplying by 100%.

[1] = Aqueous stability of peptide in McIlvaine's buffer; format: physicochemical
Method: A typical procedure for measuring the stability of a peptide compound of the present invention is as follows, in which, to minimize microbial contamination and degradation, all equipment that is used to prepare peptide solutions is sterilized in an autoclave and all material transfers carried out in a Class II laminar flow cabinet. Approximately 20 ml of McIlvaine's citric acid-phosphate buffer solution at pH 3 or 7.6 containing 0.02% sodium azide is filtered into a 50 ml bottle using a sterile […] filter unit and a 20 ml syringe. Approximately 1.2 mg of peptide is accurately weighed in a capped vial. Using a sterile pipette tip, sufficient buffer solution is added to the peptide in the vial to give a peptide concentration of 0.1 mg/ml. The vial is capped and shaken to dissolve the peptide. Using a sterile pipette tip, aliquots of approximately 1 ml of the peptide solution are transferred to 10 HPLC vials, which are then capped. 5 vials are stored at -18 and 37° C. The area of the peptide peak for the solution is determined by HPLC using appropriate standards initially and after storage at -18 and 37° C. for 1, 2, 3 and 4 weeks, using a fresh vial at each time point with duplicate sample injections. The percentage of peptide remaining after storage at 37° C. at each time point is determined from the ratio of the area of the peptide peak at each time point to the initial area. […]

[2] = Loss of peptide due to degradation on extrusion of polymer depot formulation; format: physicochemical; settings: in the form of a polymer depot formulation
Method: Typical procedures for measuring the level of degradation of a peptide compound of the present invention are as follows:
About 20 mg of peptide is accurately weighed and sufficient polymer (50/50% molar poly(D,L-lactic acid/glycolic acid) copolymer of approximate weight average molecular weight 20 kD and approximate polydispersity of 1.7 as determined by size exclusion chromatography relative to polystyrene standards) added to produce an approximate 20% w/w mixture. This is dissolved in anhydride-free glacial acetic acid to produce an approximate 10% w/v solution. The solution is freeze dried and the resulting freeze dried product is stored under vacuum prior to use.
About 100 mg of freeze dried material is loaded into the barrel of a small laboratory extruder and the plunger pushed down to consolidate the sample. […]
Each standard is filtered through a 5 μm Millex PTFE filter and an aliquot of filtrate, together with aliquots of the solutions A, analysed by HPLC using duplicate sample injections. The peptide content of the extruded polymer depot formulation of peptide is calculated from the concentration of peptide in solutions A, which is determined by comparing the area of the peptide peak in solutions A with the area of the peptide peak from the standard solutions.

[3] = Degradation of peptide on in vitro release from an extruded polymer depot; format: physicochemical; settings: in the form of a polymer depot formulation
Method: A solution of McIlvaine's citric acid-phosphate buffer solution at pH 7.6 containing 0.02% sodium azide, is filtered through a 0.22μ filter and stored at 4° C. Approximately 10 mg of extruded polymer depot containing peptide is placed in two small vials and 2 ml of the buffer solution added. The vials are then capped and stored in a water bath at 37° C. for a month. At suitable time points over a month, three 0.6 ml aliquots of release medium are removed from each vial and either analysed by HPLC or stored frozen in an HPLC vial at -18° C. prior to analysis by HPLC. 1.8 ml of the buffer solution is added to each vial containing the depot to replace the release medium that has been removed at each time point.
The average amount of intact peptide in the release medium at each time point is determined by HPLC using duplicate sample injections by comparing the area of the peptide peak in the release media with the area of the peptide peak from standard buffer solutions of peptide at known concentrations. The approximate average amount of peptide degradation products in the release media at each time point is determined by HPLC by comparing the area of additional new peaks in the release media with the area of the peptide peak from standard buffer solutions of peptide at known concentrations and assuming the extinction coefficient has not changed. […]

Structure (SMILES): C[C@H](NC(=O)CN1CCCC[C@H](NC(=O)[C@H](C)NC(=O)[C@H](C)NC(=O)[C@H](CCCNC(=N)N)NC(=O)CCCCc2ccccc2)C1=O)C(=O)N[C@@H](C)C(=O)N[C@@H](C)C(=O)Nc1ccc(CC(N)=O)cc1 [Example 1, Phv-Arg-Ala-Ala-IIb-Ala-Ala-Ala-Papa-NH2]
- concentration showing significant binding to HLA-DR4Dw4 (HLA-DR4Dw4): ≤ 0.1 µM
- binding to HLA-DR1 (HLA-DR1): significant binding
- binding to HLA-DR2 (HLA-DR2): significant binding
- IC50 (HLA-DR3): > 100 µM
- dose at which active in Test C (BALB/C mice): < 0.1 mg/kg/day
- aqueous stability ([1]; pH3): good aqueous stability
- aqueous stability ([1]; pH7.6): good aqueous stability
- loss due to degradation on extrusion [2]: minimal loss due to degradation on extrusion
- degradation on release from depot formulation [3]: minimal degradation on release
